Reference: BigSolDB 2.1

C[C@@H]1CC[C@@]2(OC1)O[C@H]1C[C@H]3[C@@H]4CC=C5C[C@@H](O)CC[C@]5(C)[C@H]4CC[C@]3(C)[C@H]1[C@@H]2C
Conditions	solubility (mole fraction)
in ethanol, 289.15 K	0.00106
in ethanol, 301.05 K	0.00147
in ethanol, 305.75 K	0.0017
in ethanol, 312.35 K	0.00188
in ethanol, 312.65 K	0.00196
in ethanol, 316.65 K	0.00227
in ethanol, 320.25 K	0.00253
in ethanol, 322.35 K	0.00269
in ethanol, 324.05 K	0.0029
in ethanol, 325.65 K	0.00306
in ethanol, 327.65 K	0.00324
in ethanol, 329.05 K	0.00338
in ethanol, 331.25 K	0.00353
in ethanol, 332.35 K	0.00372
in ethanol, 334.15 K	0.00388
in isobutanol, 305.15 K	0.00236
in isobutanol, 306.95 K	0.00266
in isobutanol, 307.65 K	0.00296
in isobutanol, 308.65 K	0.00332
in isobutanol, 310.15 K	0.00364
in isobutanol, 311.65 K	0.00416
in isobutanol, 312.95 K	0.00456
in isobutanol, 313.85 K	0.00499
in isobutanol, 314.85 K	0.0054
in isobutanol, 316.15 K	0.00582
in isobutanol, 317.65 K	0.00625
in isobutanol, 319.65 K	0.00672
in isobutanol, 320.65 K	0.0071
in isobutanol, 322.15 K	0.00754
in isobutanol, 323.85 K	0.00797
in isobutanol, 325.15 K	0.00836
in isobutanol, 326.95 K	0.00884
in isobutanol, 328.65 K	0.00931
in isobutanol, 330.65 K	0.00979
in isooctanol, 296.55 K	0.0073
in isooctanol, 298.55 K	0.00809
in isooctanol, 299.75 K	0.0091
in isooctanol, 303.15 K	0.00992
in isooctanol, 305.65 K	0.0106
in isooctanol, 307.15 K	0.0114
in isooctanol, 309.25 K	0.012
in isooctanol, 311.85 K	0.0129
in isooctanol, 314.65 K	0.0139
in isooctanol, 315.95 K	0.0146
in isooctanol, 318.25 K	0.0154
in isooctanol, 321.05 K	0.0163
in isooctanol, 323.25 K	0.017
in isooctanol, 324.95 K	0.0177
in isooctanol, 326.55 K	0.0185
in isooctanol, 327.45 K	0.0192
in isooctanol, 329.75 K	0.0199
in n-butanol, 295.75 K	0.00469
in n-butanol, 298.15 K	0.0052
in n-butanol, 300.15 K	0.00572
in n-butanol, 304.65 K	0.00624
in n-butanol, 307.65 K	0.00659
in n-butanol, 309.65 K	0.00694
in n-butanol, 311.55 K	0.00731
in n-butanol, 312.65 K	0.00767
in n-butanol, 314.25 K	0.00805
in n-butanol, 315.85 K	0.0084
in n-butanol, 317.35 K	0.00914
in n-butanol, 319.15 K	0.00956
in n-butanol, 320.65 K	0.00996
in n-butanol, 323.45 K	0.0105
in n-butanol, 325.45 K	0.011
in n-butanol, 326.45 K	0.0114
in n-butanol, 328.45 K	0.012
in n-pentanol, 290.75 K	0.00406
in n-pentanol, 292.75 K	0.00455
in n-pentanol, 296.15 K	0.00507
in n-pentanol, 299.65 K	0.00566
in n-pentanol, 301.55 K	0.00615
in n-pentanol, 304.15 K	0.00663
in n-pentanol, 307.65 K	0.00722
in n-pentanol, 309.85 K	0.00775
in n-pentanol, 312.45 K	0.00838
in n-pentanol, 314.45 K	0.00888
in n-pentanol, 316.75 K	0.00933
in n-pentanol, 317.35 K	0.00978
in n-pentanol, 318.75 K	0.0105
in n-pentanol, 320.65 K	0.0111
in n-pentanol, 322.65 K	0.0116
in n-pentanol, 324.15 K	0.0123
in n-pentanol, 325.75 K	0.0128
in n-pentanol, 327.15 K	0.0134
in n-pentanol, 329.15 K	0.0139
in n-propanol, 290.15 K	0.00163
in n-propanol, 292.95 K	0.00205
in n-propanol, 295.55 K	0.00243
in n-propanol, 301.75 K	0.00278
in n-propanol, 305.25 K	0.00307
in n-propanol, 307.95 K	0.0034
in n-propanol, 310.95 K	0.0039
in n-propanol, 314.75 K	0.00424
in n-propanol, 318.15 K	0.00473
in n-propanol, 320.05 K	0.00506
in n-propanol, 322.75 K	0.00542
in n-propanol, 326.35 K	0.0059
in n-propanol, 327.85 K	0.00622
in n-propanol, 329.25 K	0.00663
in n-propanol, 330.65 K	0.00696
in n-propanol, 332.65 K	0.0073
in tert-butanol, 302.15 K	0.000811
in tert-butanol, 304.65 K	0.00108
in tert-butanol, 306.65 K	0.00134
in tert-butanol, 308.15 K	0.00151
in tert-butanol, 310.65 K	0.00175
in tert-butanol, 312.15 K	0.00198
in tert-butanol, 313.65 K	0.00223
in tert-butanol, 314.15 K	0.00244
in tert-butanol, 315.95 K	0.00274
in tert-butanol, 317.75 K	0.00307
in tert-butanol, 321.15 K	0.00343
in tert-butanol, 323.15 K	0.00368
in tert-butanol, 325.15 K	0.00392
in tert-butanol, 326.65 K	0.00427
in tert-butanol, 328.65 K	0.00467
in tert-butanol, 330.75 K	0.00497
in tert-butanol, 332.45 K	0.00529
